Results reported in ChEMBL document CHEMBL1201862, “PubChem BioAssay data set” (2004).
Activity calls are given as the source filed them.

Assays:
[1] = biological target: NAD-dependent protein deacylase sirtuin-5, mitochondrial (Homo sapiens, UniProt Q9NXA8); experiment: SIRT5 desuccinylase inhibitors, dose response, biochemical, fluorescence imaging, cherry-pick, set 5 (AID 720591);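 also: desuccinylation of succinyl peptide AMC substrate read as fluorescence after trypsin release; potency of inhibitors that lower fluorescence and may act on trypsin instead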
HEK293 = experiment: cells; assay type: functional, cell-based; conditions: Homo sapiens
[2] = biological target: T1, Nuclear receptor subfamily 0 group B member 1 (Homo sapiens, UniProt P51843); experiment: Luminescence-based cell-based high throughput dose response assay for inhibitors of the orphan nuclear receptor subfamily 0, group B, member 1 (DAX1; NR0B1). [Related pubchem assays (depositor defined):AID504766, AID504790]; assay type: functional
T1 sequence (P51843 whole entry): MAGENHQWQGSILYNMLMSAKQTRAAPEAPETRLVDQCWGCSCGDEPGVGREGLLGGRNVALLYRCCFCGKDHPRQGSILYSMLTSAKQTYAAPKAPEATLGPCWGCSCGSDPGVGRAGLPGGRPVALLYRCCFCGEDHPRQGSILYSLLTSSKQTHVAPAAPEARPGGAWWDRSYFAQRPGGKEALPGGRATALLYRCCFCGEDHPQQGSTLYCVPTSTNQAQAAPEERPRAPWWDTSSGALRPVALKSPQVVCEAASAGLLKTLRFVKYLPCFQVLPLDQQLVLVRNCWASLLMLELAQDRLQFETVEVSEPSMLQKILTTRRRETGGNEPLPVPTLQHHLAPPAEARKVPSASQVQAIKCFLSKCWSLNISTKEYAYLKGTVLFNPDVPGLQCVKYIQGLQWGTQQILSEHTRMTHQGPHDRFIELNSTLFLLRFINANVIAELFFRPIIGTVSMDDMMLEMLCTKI

Major prion protein = Major prion protein (Homo sapiens, UniProt P04156); assay type: functional, cell-based
[3] = CRF-BP/CRF-R2 complex antagonists, dose response, cell-based, uHTS hits, 384-well (AID 651639); assay type: functional, Homo sapiens; conditions: read-out: IC50_Mean
[4] = biological target: T2, Corticotropin-releasing factor receptor 2/Corticotropin-releasing factor-binding protein (Homo sapiens, UniProt P24387+Q13324); experiment: activators of CRF receptor 2 with binding protein – uHTS hits, confirmation (AID 602473); assay type: functional; conditions: read-out: EC50_Mean
T2 sequence (Q13324 whole entry): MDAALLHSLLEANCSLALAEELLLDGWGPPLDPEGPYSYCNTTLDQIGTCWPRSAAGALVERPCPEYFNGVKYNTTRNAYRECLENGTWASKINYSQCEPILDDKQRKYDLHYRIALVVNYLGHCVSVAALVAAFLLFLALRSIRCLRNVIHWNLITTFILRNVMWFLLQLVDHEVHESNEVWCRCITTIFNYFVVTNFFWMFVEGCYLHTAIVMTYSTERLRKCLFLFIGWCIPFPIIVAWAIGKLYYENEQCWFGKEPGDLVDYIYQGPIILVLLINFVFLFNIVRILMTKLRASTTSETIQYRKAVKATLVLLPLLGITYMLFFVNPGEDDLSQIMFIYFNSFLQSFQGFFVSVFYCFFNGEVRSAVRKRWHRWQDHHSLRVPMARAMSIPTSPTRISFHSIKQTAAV
T2 sequence (P24387 whole entry): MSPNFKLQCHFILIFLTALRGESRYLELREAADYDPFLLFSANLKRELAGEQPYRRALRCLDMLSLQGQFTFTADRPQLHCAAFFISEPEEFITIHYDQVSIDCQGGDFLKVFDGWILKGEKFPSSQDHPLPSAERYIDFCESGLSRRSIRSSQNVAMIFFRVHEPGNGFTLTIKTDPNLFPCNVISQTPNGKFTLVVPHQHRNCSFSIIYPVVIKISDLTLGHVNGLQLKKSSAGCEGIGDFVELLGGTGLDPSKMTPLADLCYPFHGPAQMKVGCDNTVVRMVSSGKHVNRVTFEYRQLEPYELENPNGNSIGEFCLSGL

[5] = biological target: T2, Corticotropin-releasing factor receptor 2/Corticotropin-releasing factor-binding protein; experiment: Dose Response confirmation of uHTS hits for small molecule antagonists of the CRF-binding protein and CRF-R2 receptor complex.; assay type: functional; conditions: read-out: IC50_Mean
Protein Wnt-3a = Protein Wnt-3a (Mus musculus, UniProt P27467); experiment: Wnt3a-driven reporter signaling inhibition, dose response, selectivity assay for Gli-SUFU antagonist project, Wnt-LIGHT cells, luminescence (AID 651570); assay type: functional; conditions: read-out: IC50_Mean;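 also: Wnt-LIGHT reporter cells stimulated with conditioned medium from Wnt3a-producing cells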
[6] = Luminescence-based cell-based high throughput dose response assay to identify activators of the DAF-12 from the parasite S. stercoralis (ssDAF-12).; assay type: functional
Paired box protein Pax-8 = Paired box protein Pax-8 (Homo sapiens, UniProt Q06710); experiment: inhibitors of PAX8-driven TPO luciferase reporter, dose response, RMG-I cells, cherry-pick (AID 687027); assay type: functional, cell-based;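 also: luciferase reporter driven by Pax8 target thyroperoxidase promoter measured by SteadyGlo luminescence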
[7] = A2780 ovarian cancer cell cytotoxicity, dose response, cytotoxicity control, plate reader, dry powder samples (AID 743046); assay type: functional, cell-based
[8] = NIH:OVCAR-3 ovarian cancer cell cytotoxicity, dose response, PAX8 inhibitor project, plate reader, dry powder samples (AID 743044); assay type: functional, cell-based
[9] = cytotoxicity in OVCAR8 ovarian cancer cells, dose response, PAX8 project, cell-based, plate reader, dry powder samples (AID 743197); assay type: functional; conditions: OVCAR-8
[10] = P. falciparum 3D7-ScDHODH growth inhibitors, dose response, SYBR Green, dry powder samples (AID 1159570); assay type: functional, cell-based;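 also: parasite growth measured after 72 hours of compound exposure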
[11] = HepG2 cell cytotoxicity, dose response, cytotoxicity control, plate reader, dry powder samples (AID 1159569); assay type: functional, cell-based;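 also: inhibitor potency with signal falling toward the positive control level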
[12] = P. falciparum ATP4 D1247Y mutant growth inhibitors, dose response, NITD609-resistant line, SYBR Green, dry powder (AID 1159571); assay type: functional, cell-based;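 also: parasites synchronized at ring stage by sorbitol before testing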
[13] = P. falciparum Dd2 growth inhibitors, dose response, SYBR Green, dry powder samples (AID 1159566); assay type: functional, cell-based;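 also: potency for growth inhibition with lower SYBR green DNA signal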
[14] = P. falciparum Dd2 growth inhibitors, dose response, SYBR Green, cherry-picked samples (AID 1159567); assay type: functional, cell-based

## COc1ccc(C(=O)C2CCCN(Cc3c[nH]nc3-c3ccccc3)C2)cc1OC (configuration not stated)
[1]
  AC50: > 30 µM (inactive)

## COc1ccc([N+](=O)[O-])cc1NC(=S)NC(C)=O
HEK293
  IC50: > 67.6 µM (inactive)
[2]
  IC50: > 67.6 µM (inactive)

## COc1ccccc1NC(=O)N1CCCC(C(=O)Nc2cccc(C)c2C)C1 (configuration not stated)
HEK293
  IC50: > 67.6 µM (inactive)
[2]
  IC50: > 67.6 µM (inactive)

## Cc1cc(NC(=O)CSc2nc(O)c(C#N)c(-c3ccccc3)n2)no1
Major prion protein
  IC50: 7.14 µM (active)
cells
  IC50: > 138 µM (inactive)

## COc1ccc(NC(=O)c2c(F)cccc2F)cc1S(=O)(=O)Nc1ccc(Br)cc1
[3]
  IC50: 18.9 µM (active)
[4]
  EC50: > 53 µM (inactive)
[5]
  IC50: 20 µM (active)

## C#CCOC(=O)C[N+](C)(C)CC#Cc1ccccc1
HEK293
  IC50: > 67.6 µM (inactive)
[2]
  IC50: > 67.6 µM (inactive)

## COC(=O)C1=C(c2cc3ccccc3o2)C[C@@H]2CC[C@H]1N2C(=O)N1CCC(C)CC1
Protein Wnt-3a
  IC50: 24.4 µM (inactive)

## CCOC(=O)c1c(C)[nH]c(C)c1C(=O)COC(=O)c1ccccc1O
[1]
  AC50: 20 µM (active)

## Cc1cc2oc(C(=O)NCC(c3ccco3)N3CCCC3)c(C)c2cc1C (configuration not stated)
[6]
  IC50: > 67.6 µM (inactive)

## C[C@@H]1CN([C@@H](C)CO)C(=O)Cc2cc(NC(=O)NC3CCCCC3)ccc2O[C@H]1CN(C)Cc1ccc(-c2ccccc2)cc1
Paired box protein Pax-8
  AC50: 8.66 µM (active)
[7]
  AC50: 31.8 µM (active)
[8]
  AC50: 49.5 µM (active)
[9]
  AC50: 34 µM (active)

## COc1ccc(NC(=O)Nc2ccc3c(c2)C(=O)N([C@H](C)CO)C[C@@H](C)[C@@H](CN(C)C(=O)Cc2ccccc2)OCCCC[C@H](C)O3)cc1
Paired box protein Pax-8
  AC50: 30.9 µM (active)
[7]
  AC50: 16.6 µM (active)
[9]
  AC50: > 70 µM (inactive)

## COc1ccc(NC(=O)N2CCCCN3[C@H](CO)[C@H](c4ccc(C#CCC(C)C)cc4)[C@@H]3C2)cc1
[10]
  AC50: 0.209 µM (active)
[11]
  AC50: > 100 µM (inactive)
[12]
  AC50: 0.264 µM (active)
[13]
  AC50: 0.418 µM (active)
[14]
  AC50: 0.636 µM (active)

## C[C@@H]1CN([C@H](C)CO)C(=O)c2ccccc2-c2ccccc2CO[C@H]1CN(C)C(=O)Nc1cccc(Cl)c1Cl
[10]
  AC50: 0.466 µM (active)
[11]
  AC50: > 100 µM (inactive)
[12]
  AC50: 1.65 µM (active)
[13]
  AC50: 0.56 µM (active)
[14]
  AC50: 1.01 µM (active)
